From PMC3224947, “Inhibition of HIV-1 integrase nuclear import and replication by a peptide bearing integrase putative nuclear localization signal” (Retrovirology, 2009)

Tests used:
[1] = system: COS-7 cells (nuclear import); experiment: Microinjection of FITC-BSA conjugates into COS-7 cells, nuclear import; type: cell-based; conditions: 37°C, 2 h after injection, fluorescence microscopy (Fig. 3A-E)
Excerpt: Nuclear import transport substrates
Proteins and peptides used in this work as transport substrates were covalently attached to either fluorescein isothiocyanate-labeled bovine serum albumin (FITC-BSA) or biotinylated BSA (Bb) molecules (Sigma). Sulfosuccinimidyl-4-(N-maleimidomethyl) cyclohexane-1-carboxylate (sulfo-SMCC) was used as the cross-linker to give FITC-BSA-protein/peptide and Bb-protein/peptide conjugates, as described previously.
Microinjection of fluorescently labeled transport substrates
FITC-BSA-IN, FITC-BSA-180-IN, FITC-BSA-152-IN, FITC-BSA-NLS-IN, as well as unlabeled FITC-BSA, were microinjected into the cytoplasm of cultured COS-7 cells as described previously. The CompInject AIS2 automated microinjection system (Cell Biology Trading, Hamburg, Germany) was used following the method developed by Graessmann and Graessman. Cultured mammalian cells were incubated at 37°C for 2 h after injection and observed by fluorescence microscopy.

[2] = system: HIV-1 replication in Sup-T1 cells; experiment: Time-of-addition assay, viral p24 production in Sup-T1 cells; type: cell-based; conditions: non-active peptides, NLS-IN and Pen at 62.5 μM in time-of-addition; sentence cites Fig. 9 as a whole
Experimental: Sup-T1 cells were infected with wild-type HIV-1 at a MOI of 2, and the test compounds were added at different time points after infection (0, 2, 4,..., 24 h). Viral p24 production was determined at 48 h PI [67]. Dextran sulfate was tested at 20 μM, AZT at 2 μM, NLS-IN-Pen, NLS-IN and Pen at 62.5 μM, LEDGF 402-411 at 12.5 μM [41].

IN-importin α complex = experiment: Co-immunoprecipitation of IN and importin α from HIV-1-infected cells; conditions: HIV-1-infected H9 lymphocytes, 150 μM peptide 2 h prior to infection, harvested 10 h PI (Fig. 7A)
[3] = system: HIV-1 IN (nuclear import); experiment: Immunostaining of intracellular localization of IN in stably transfected, cell-cycle arrested HeLaP4/IN-expressing cells; type: cell-based; conditions: aphidicolin 5 μg/ml arrested HeLaP4/IN cells; 150 μM peptide, 6 h; confocal microscopy (Fig. 1)
Experimental: Localization studies of transfected IN in cultured cells by immunostaining
HeLaP4/IN-expressing cells were grown on chamber slides (Nunc). […] Cells were fixed and immunostained essentially as described previously with several modifications. Briefly, after fixation cells were blocked with 5% (w/v) BSA (IgG free) (Jackson) in PBS for 60 min. […] Cells were washed five times with PBS + 0.05% (v/v) Tween 20. Then the cells were incubated with a second antibody, Cy3-conjugated anti-rabbit antibody (Jackson) (1:200) at room temperature for 60 min followed by five washes with PBS + 0.05% Tween 20. For detection of DNA, cells were stained with DAPI according to the manufacturer's protocol. The slides were prepared with mounting media (Bio-Rad) and immunofluorescent cells were detected with a confocal microscope.

[4] = system: HIV-1 IN (nuclear import); experiment: Immunostaining of IN localization in HIV-1-infected HeLaP4 cells; type: cell-based; conditions: aphidicolin-arrested HeLaP4, 150 μM peptide 2 h, then HIV-1 MOI 25, fixed 10 h PI (Fig. 7B)
Experimental: Localization studies of IN in HIV-1-infected cultured cells by immunostaining
HeLaP4 cells were grown on chamber slides. […] After incubation with the peptides, cells were infected with wild-type HIV-1 at a multiplicity of infection (MOI) of 25. Cells were fixed and stained as described above with the following modifications: fixation was performed at 10 h PI, the first antibody was used at a dilution of 1:50, the second antibody at a dilution of 1:100.

HIV-1 in TZM-bl cells = experiment: MAGI assay, HIV-1 infection of TZM-bl cells (β-galactosidase reporter); type: cell-based; conditions: TZM-bl cells (Fig. 9A, B); dividing/non-dividing not distinguished
Experimental: HIV-1 titration by multinuclear activation of a galactosidase indicator (MAGI) assay
Quantitative titration of HIV-1 was carried out using the MAGI assay, as described previously. Briefly, TZM-b1 cells were grown in 96-well plates at 10^4 cells/well and incubated for 12 h at 37°C. Peptides were then added and after an additional 2 h of incubation, the cells were infected with 50 μl of serially diluted HIV-1. To obtain cell-cycle arrested cells, 5 μg/ml of aphidicolin was added 2 h before the experiment. Cultured cells were fixed 2 days PI and β-galactosidase was estimated. Blue cells were counted under a light microscope at 200× magnification.

Row | Substance | nuclear import after microinjection [1] | inhibition of HIV-1 (Fig. 9) [2] | IN-importin α interaction (co-IP) (IN-importin α complex) | nuclear import / intracellular localization of IN [3] | intranuclear IN in infected cells [4] | HIV-1 infection inhibition (HIV-1 in TZM-bl cells)
1 | FITC-BSA: fluorescein isothiocyanate-labeled bovine serum albumin | no nuclear import was observed |  |  |  |  | 
2 | RQIKIWFQNRRMKWKK [Pen] |  | Inhibition was not observed | neither the SV40-mut-NLS-Pen (or a scrambled NLS-IN [23], not shown) nor the Pen peptide itself promoted dissociation of the IN-importin α complex | did not have any effect on nuclear import of IN | some intranuclear fluorescently labeled IN could be observed | no inhibition of HIV-1 infection
